The numbers were not newly measured in US8449906B2, “Effervescent compositions comprising phosphonates and methods related thereto” (EffRx Pharmaceuticals, S.A., priority 2002, dated 2013), which cites them from elsewhere.

For the compound `COc1ccc2[nH]c([S+]([O-])Cc3ncc(C)c(OC)c3C)nc2c1` (stereo not shown) [omeprazole], the pKa result is listed as “about 3.9”.
